The text below walks through data of US4564614A, “Antiinflammatory methods” (priority 1985, dated 1986).

Data set [1] relates to piroxicam-induced gastric lesions. In words: animal or person. The data set is classed as in vivo, rat (CD strain, Sprague-Dawley). Particulars: for reduction of piroxicam-induced gastric lesions: healthy fasted rat; for Lesions/Rat (mean +/- SE): with 120 mg/kg ethanolamine salt of piroxicam; for Significance p < 0.05: Student's two-tailed t test vs piroxicam-only control. How it is done:
Adult male "specific pathogen free" rats weighing 140-160 grams of the CD strain (Sprague-Dawley) were obtained from Charles River Breeding Laboratories (Kingston, N.Y.) The animals were acclimated for approximately one week and tested when they reached a body weight of 200-225 grams. The rats were fasted for 16 hours and randomized into groups consisting of 8 to 20 animals which were normalized with regard to their average body weight.
Gastric ulcers were induced in the animals by orally dosing them with a single 120 mg/kg dose of piroxicam (ethanolamine salt) in 2 ml. of aqueous 0.1% methylcellulose (pH=6.8). Those animals receiving a second medicinal agent separately received the second drug in an additional 2 ml. of the same medium at about the same time. Six and one-half hours later, the animals were sacrificed by cervical dislocation and autopsied. The stomachs were surgically removed, dissected along the greater curvature and rinsed with cold water. The stomachs were individually scored for both linear and punctuate lesions. The total number of lesions was used for scoring purposes. The data obtained from each group of rats was analyzed after calculation of the mean number ± the standard error of total gastric lesions. The values obtained were also compared to the controls which received only piroxicam by the two-tailed Student's T-Test for non-paired data.

The conditions of data set [2]: 50-150 mg/day for 3 months, rheumatoid arthritis patients; cited from earlier work.
For a further data set, the system named is rheumatoid arthritis. Particulars: 50-150 mg/day for 3 months, rheumatoid arthritis patients, most taking aspirin; cited from earlier work.
A further data set has as its system ulcers. The conditions noted are these: 1.1 mg/kg, injection; cited from earlier work.
Another data set relates to gastric ulcers. The conditions noted are these: subcutaneous injection; cited from earlier work.

In the case of `CN(C)CCC=C1c2ccccc2COc2ccccc21` [doxepin], the “reduction of piroxicam-induced gastric lesions” value (“reduction” below) in data set [1] was “significantly reduce”.
Turning to `Cc1ncc(CO)c(CO)c1O.Cl` [Pyridoxine Hydrochloride, pyridoxine hydrochloride], the “Lesions/Rat (mean +/- SE)” value is recorded as 7.0 (1.1) in data set [1] (3.3 mg/kg oral, 10 rats); 4.2 (1.2) in data set [1] (10 mg/kg oral, 30 rats); 3.9 (1.1) in data set [1] (33 mg/kg oral, 50 rats); 2.7 (1.1) in data set [1] (100 mg/kg oral, 20 rats). Moreover, the “Significance p < 0.05” value in data set [1] (33 mg/kg oral) and in data set [1] (100 mg/kg oral) was “+ (p < 0.05)” in each case. The median effective dose (ED50) in data set [1] (Rattus norvegicus, 6.5 h, oral, linear regression analysis, 120 mg/kg ethanolamine salt of piroxicam, read-out: ED50 (dose required to inhibit 50% of control gastric lesion)) is 33 mg/kg. The “increase in plasma levels of pyridoxal phosphate” value in data set [2] is listed as 2-5 fold. For the same compound, the “clinical improvements in the disease” value in the data set on rheumatoid arthritis was “no clinical improvements”.
With `CC(=O)Nc1ccc(O)cc1` [acetaminophen], in data set [1], the “reduction” value was “significantly reduce”.
`Cc1ncc(CO)c(CO)c1O` [Pyridoxine, pyridoxine]: in the data set on ulcers, the frequency of ulcers entry is on record as “reduce the frequency of ulcers”. In the data set with gastric ulcers, the “healing of gastric ulcers” value was “not promote the healing” and the “pain of gastric ulcers” value was “alleviate the pain”.
With `CC(C)(C)NCC(O)c1ccc(O)c(CO)n1` (centres unmarked) [pirbuterol], the “reduction” value in data set [1] is “significantly reduce”.
On the same count and under the same terms, the entry for `CN1C(=O)CN=C(c2ccccc2)c2cc(Cl)ccc21` [diazepam] is “significantly reduce”; for `c1ccc(CCNc2nc(-c3ccccc3)cs2)cc1` [fanetizole] it is “significantly reduce”.

As a reminder, the ED50 is the dose at which the effect has come halfway, by size or by number of responders.
